Results reported in PubChem BioAssay (NCI).
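Values below derive from 48-hour exposures of cells grown in 96-well plates, with endpoints linearly interpolated between the two concentrations bracketing the appropriate inhibition level. Definition used: TGI = concentration required for complete inhibition of growth.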

Tests used:
Test in all cases: NCI tumour cell line growth inhibition, 48 h
[1] = system: 786-0 renal
[2] = system: A498 renal
[3] = system: A549 NSCLC
[4] = system: ACHN renal
[5] = system: BT-549 breast
[6] = system: CAKI-1 renal
[7] = system: CCRF-CEM leukemia
[8] = system: COLO 205 colon
[9] = system: DU-145 prostate
[10] = system: EKVX NSCLC
[11] = system: HCC-2998 colon
[12] = system: HCT-116 colon
[13] = system: HCT-15 colon
[14] = system: HL-60(TB) leukemia
[15] = system: HOP-62 NSCLC
[16] = system: HOP-92 NSCLC
[17] = system: HS 578T breast
[18] = system: HT29 colon
[19] = system: IGROV1 ovarian
[20] = system: K-562 leukemia
[21] = system: KM12 colon
[22] = system: LOX IMVI melanoma
[23] = system: M14 melanoma
[24] = system: MALME-3M melanoma
[25] = system: MCF7 breast
[26] = system: MDA-MB-231 breast
[27] = system: MDA-MB-435
[28] = system: MDA-N
[29] = system: MOLT-4 leukemia
[30] = system: NCI-H226 lung
[31] = system: NCI-H23 lung
[32] = system: NCI-H460 lung
[33] = system: NCI-H522 lung
[34] = system: NCI/ADR-RES ovarian
[35] = system: OVCAR-3 ovarian
[36] = system: OVCAR-4 ovarian
[37] = system: OVCAR-5 ovarian
[38] = system: OVCAR-8 ovarian
[39] = system: PC-3 prostate
[40] = system: RPMI-8226 leukemia
[41] = system: RXF 393 renal
[42] = system: SF-268 CNS
[43] = system: SF-295 CNS
[44] = system: SF-539 CNS
[45] = system: SK-MEL-2 melanoma
[46] = system: SK-MEL-28 melanoma
[47] = system: SK-MEL-5 melanoma
[48] = system: SK-OV-3 ovarian
[49] = system: SN12C renal
[50] = system: SNB-19 CNS
[51] = system: SNB-75 CNS
[52] = system: SR leukemia
[53] = system: SW-620 colon
[54] = system: T-47D breast
[55] = system: TK-10 renal
[56] = system: U251 CNS
[57] = system: UACC-257 melanoma
[58] = system: UACC-62 melanoma
[59] = system: UO-31 renal

## COC(=O)c1oc([N+](=O)[O-])c(Cl)c1Cl
[1]
  TGI: 16.4 µM
[2]
  TGI: 23 µM
[3]
  TGI: 37.7 µM
[4]
  TGI: 15.6 µM
[5]
  TGI: 14.8 µM
[6]
  TGI: 7.4 µM
[7]
  TGI: 7.35 µM
[8]
  TGI: 8.61 µM
[9]
  TGI: 32.5 µM
[10]
  TGI: 36.8 µM
[11]
  TGI: 35 µM
[12]
  TGI: 12.9 µM
[13]
  TGI: 18.2 µM
[14]
  TGI: 3.24 µM
[15]
  TGI: 17 µM
[16]
  TGI: 39.3 µM
[17]
  TGI: 29.3 µM
[18]
  TGI: 41.4 µM
[19]
  TGI: 14.8 µM
[20]
  TGI: 6.48 µM
[21]
  TGI: 14.5 µM
[22]
  TGI: 13.7 µM
[23]
  TGI: 13.8 µM
[24]
  TGI: 14.3 µM
[25]
  TGI: 6.27 µM
[26]
  TGI: 14 µM
[27]
  TGI: 14.6 µM
[28]
  TGI: 14.9 µM
[29]
  TGI: 4.93 µM
[30]
  TGI: 42.9 µM
[31]
  TGI: 17.4 µM
[32]
  TGI: 34.6 µM
[33]
  TGI: 3.33 µM
[34]
  TGI: 36.5 µM
[35]
  TGI: 11.4 µM
[36]
  TGI: 17.4 µM
[37]
  TGI: 14.8 µM
[38]
  TGI: 30.4 µM
[39]
  TGI: 15.1 µM
[40]
  TGI: 15.8 µM
[41]
  TGI: 28 µM
[42]
  TGI: 17.5 µM
[43]
  TGI: 24.7 µM
[44]
  TGI: 14.4 µM
[45]
  TGI: 31.6 µM
[46]
  TGI: 15.8 µM
[47]
  TGI: 17.7 µM
[48]
  TGI: 33.2 µM
[49]
  TGI: 14.2 µM
[50]
  TGI: 35.4 µM
[51]
  TGI: 20.8 µM
[52]
  TGI: 4.89 µM
[53]
  TGI: 10 µM
[54]
  TGI: 13.1 µM
[55]
  TGI: 14 µM
[56]
  TGI: 15.5 µM
[57]
  TGI: 15.2 µM
[58]
  TGI: 15.7 µM
[59]
  TGI: 14.5 µM
